What was measured:
[1] = Half life in human liver microsomes at 1 uM by LC-MS/MS analysis
CYP17 = molecular target: T1, CYP17 (Homo sapiens, UniProt P05093); experiment: Inhibition of human CYP17 expressed in Escherichia coli co-expressing NADPH-P450 reductase at 2 uM using progesterone as substrate; settings: probe progesterone
T1 sequence (P05093 whole entry): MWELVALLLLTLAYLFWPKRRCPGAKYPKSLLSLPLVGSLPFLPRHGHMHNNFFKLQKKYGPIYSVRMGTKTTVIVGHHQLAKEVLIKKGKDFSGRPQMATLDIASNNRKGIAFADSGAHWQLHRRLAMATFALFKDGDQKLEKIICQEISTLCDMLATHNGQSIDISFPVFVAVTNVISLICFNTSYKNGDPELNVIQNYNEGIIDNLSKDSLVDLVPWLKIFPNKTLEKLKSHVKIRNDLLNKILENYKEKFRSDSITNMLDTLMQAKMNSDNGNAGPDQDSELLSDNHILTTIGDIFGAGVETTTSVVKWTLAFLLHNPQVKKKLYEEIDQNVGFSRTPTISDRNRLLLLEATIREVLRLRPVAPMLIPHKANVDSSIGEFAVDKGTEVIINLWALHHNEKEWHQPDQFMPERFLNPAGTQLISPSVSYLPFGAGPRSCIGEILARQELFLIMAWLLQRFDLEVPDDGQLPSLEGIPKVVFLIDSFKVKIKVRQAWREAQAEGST

CYP19 = molecular target: T2, CYP19 (Homo sapiens, UniProt P11511); experiment: Inhibition of CYP19 in human placental microsomes at 500 nM using [1beta-3H]androstenedione as substrate; parameters: species or system Placenta; settings: probe [1beta-3H]androstenedione
T2 sequence (P11511 whole entry): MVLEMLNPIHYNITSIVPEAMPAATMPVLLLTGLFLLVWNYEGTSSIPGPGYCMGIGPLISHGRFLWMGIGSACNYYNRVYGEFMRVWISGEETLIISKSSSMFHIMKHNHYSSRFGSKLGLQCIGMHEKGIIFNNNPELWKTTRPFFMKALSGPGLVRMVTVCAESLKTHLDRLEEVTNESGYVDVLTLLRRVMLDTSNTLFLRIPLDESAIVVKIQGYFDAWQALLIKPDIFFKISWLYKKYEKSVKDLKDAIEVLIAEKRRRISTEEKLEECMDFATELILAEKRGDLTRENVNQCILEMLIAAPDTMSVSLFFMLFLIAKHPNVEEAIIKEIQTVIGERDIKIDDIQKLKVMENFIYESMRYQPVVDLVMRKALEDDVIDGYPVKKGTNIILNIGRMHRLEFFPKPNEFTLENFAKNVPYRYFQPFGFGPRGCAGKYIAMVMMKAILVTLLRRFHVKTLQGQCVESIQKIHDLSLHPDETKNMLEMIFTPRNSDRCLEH

[2] = molecular target: T3, Cytochrome P450 11B2, mitochondrial (Homo sapiens, UniProt P19099); experiment: Inhibition of human CYP11B2 expressed in hamster V79MZh cells using deoxycorticosterone as substrate at 500 nM; format: cell-based
T3 sequence (P19099 whole entry): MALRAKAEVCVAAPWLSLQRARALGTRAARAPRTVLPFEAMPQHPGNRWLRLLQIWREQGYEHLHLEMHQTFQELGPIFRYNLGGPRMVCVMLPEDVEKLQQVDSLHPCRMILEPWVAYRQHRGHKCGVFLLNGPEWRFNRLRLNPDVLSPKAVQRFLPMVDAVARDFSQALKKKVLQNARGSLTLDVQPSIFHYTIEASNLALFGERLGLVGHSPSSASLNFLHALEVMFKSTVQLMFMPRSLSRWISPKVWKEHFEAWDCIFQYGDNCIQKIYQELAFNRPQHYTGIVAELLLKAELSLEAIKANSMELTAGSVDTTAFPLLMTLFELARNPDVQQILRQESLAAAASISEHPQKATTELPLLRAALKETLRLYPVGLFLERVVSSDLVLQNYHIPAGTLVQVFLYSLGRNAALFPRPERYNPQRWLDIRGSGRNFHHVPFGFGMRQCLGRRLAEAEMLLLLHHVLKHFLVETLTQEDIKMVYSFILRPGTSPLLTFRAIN

CYP11B1 = molecular target: T4, CYP11B1 (Homo sapiens, UniProt P15538); experiment: Inhibition of human CYP11B1 expressed in hamster V79MZh cells using deoxycorticosterone as substrate at 500 nM; format: cell-based; settings: hamster V79MZh cells expressing human CYP11B1, probe deoxycorticosterone
T4 sequence (P15538 whole entry): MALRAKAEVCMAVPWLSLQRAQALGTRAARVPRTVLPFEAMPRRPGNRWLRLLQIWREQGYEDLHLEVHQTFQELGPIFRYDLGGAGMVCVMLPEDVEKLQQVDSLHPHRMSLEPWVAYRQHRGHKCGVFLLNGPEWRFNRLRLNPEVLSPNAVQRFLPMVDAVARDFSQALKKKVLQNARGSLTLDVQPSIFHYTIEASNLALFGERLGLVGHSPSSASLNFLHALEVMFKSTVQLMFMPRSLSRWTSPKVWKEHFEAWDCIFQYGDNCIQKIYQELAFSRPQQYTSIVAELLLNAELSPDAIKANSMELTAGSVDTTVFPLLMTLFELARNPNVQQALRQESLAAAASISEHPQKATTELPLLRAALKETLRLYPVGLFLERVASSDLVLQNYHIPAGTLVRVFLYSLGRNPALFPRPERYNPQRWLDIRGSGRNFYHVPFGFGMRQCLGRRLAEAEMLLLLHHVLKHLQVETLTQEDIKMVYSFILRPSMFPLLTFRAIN

[3] = molecular target: T5, Cytochrome P450 11B1, mitochondrial (Homo sapiens, UniProt P15538)
T5 sequence (P15538 whole entry): T4 sequence (P15538 whole entry)

[4] = molecular target: T3, Cytochrome P450 11B2, mitochondrial
Cytochrome P450 2C9 = Cytochrome P450 2C9 (Homo sapiens, UniProt P11712); experiment: Inhibition of CYP2C9 using recombinant human CYP enzyme at a single time point by LC-MS/MS analysis
Chain of Cytochrome P450 2C9 (P11712 whole entry): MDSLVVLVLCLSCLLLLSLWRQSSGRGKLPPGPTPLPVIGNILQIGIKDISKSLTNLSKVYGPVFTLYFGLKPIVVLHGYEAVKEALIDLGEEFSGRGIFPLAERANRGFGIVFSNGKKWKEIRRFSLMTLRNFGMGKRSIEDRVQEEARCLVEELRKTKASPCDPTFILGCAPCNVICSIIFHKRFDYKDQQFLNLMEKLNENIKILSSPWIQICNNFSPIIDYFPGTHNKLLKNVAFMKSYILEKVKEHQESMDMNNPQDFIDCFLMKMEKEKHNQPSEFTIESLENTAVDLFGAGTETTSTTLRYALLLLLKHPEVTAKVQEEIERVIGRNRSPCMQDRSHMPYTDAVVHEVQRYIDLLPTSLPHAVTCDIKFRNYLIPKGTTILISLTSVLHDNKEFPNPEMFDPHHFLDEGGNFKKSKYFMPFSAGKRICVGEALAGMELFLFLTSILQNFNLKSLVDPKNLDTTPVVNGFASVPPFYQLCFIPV

Cytochrome P450 2D6 = Cytochrome P450 2D6 (Homo sapiens, UniProt P10635); experiment: Inhibition of CYP2D6 using recombinant human CYP enzyme at a single time point by LC-MS/MS analysis
Chain of Cytochrome P450 2D6 (P10635 whole entry): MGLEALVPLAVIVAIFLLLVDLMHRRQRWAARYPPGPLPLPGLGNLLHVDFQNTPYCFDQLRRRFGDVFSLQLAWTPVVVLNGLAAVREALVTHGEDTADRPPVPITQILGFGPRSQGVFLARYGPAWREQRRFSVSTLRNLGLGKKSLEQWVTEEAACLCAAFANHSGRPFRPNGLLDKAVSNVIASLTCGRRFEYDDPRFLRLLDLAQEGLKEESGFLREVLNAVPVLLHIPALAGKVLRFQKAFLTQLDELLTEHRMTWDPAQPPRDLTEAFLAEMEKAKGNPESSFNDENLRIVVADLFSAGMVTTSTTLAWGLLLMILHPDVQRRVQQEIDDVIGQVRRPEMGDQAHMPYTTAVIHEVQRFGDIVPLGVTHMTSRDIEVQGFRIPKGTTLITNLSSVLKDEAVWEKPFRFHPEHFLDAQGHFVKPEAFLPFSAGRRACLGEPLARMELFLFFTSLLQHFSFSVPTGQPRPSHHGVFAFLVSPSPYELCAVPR

Cytochrome P450 2C19 = Cytochrome P450 2C19 (Homo sapiens, UniProt P33261); experiment: Inhibition of CYP2C19 using recombinant human CYP enzyme at a single time point by LC-MS/MS analysis
Chain of Cytochrome P450 2C19 (P33261 whole entry): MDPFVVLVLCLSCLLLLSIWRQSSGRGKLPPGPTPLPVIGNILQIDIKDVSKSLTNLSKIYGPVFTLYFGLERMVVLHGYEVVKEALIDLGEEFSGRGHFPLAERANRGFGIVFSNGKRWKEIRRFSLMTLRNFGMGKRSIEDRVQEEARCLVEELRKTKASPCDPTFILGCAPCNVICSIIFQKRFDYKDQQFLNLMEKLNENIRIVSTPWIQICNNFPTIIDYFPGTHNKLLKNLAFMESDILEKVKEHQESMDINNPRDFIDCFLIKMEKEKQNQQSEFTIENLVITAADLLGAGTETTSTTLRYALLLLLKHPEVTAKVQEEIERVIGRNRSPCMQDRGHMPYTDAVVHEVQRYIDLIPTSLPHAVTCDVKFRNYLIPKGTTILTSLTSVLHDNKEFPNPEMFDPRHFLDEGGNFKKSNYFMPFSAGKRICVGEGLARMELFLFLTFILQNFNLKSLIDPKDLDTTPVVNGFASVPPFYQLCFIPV

Cytochrome P450 1A2 = molecular target: T6, Cytochrome P450 1A2 (Homo sapiens, UniProt P05177); experiment: Inhibition of CYP1A2 using recombinant human CYP enzyme at a single time point by LC-MS/MS analysis
T6 sequence (P05177 whole entry): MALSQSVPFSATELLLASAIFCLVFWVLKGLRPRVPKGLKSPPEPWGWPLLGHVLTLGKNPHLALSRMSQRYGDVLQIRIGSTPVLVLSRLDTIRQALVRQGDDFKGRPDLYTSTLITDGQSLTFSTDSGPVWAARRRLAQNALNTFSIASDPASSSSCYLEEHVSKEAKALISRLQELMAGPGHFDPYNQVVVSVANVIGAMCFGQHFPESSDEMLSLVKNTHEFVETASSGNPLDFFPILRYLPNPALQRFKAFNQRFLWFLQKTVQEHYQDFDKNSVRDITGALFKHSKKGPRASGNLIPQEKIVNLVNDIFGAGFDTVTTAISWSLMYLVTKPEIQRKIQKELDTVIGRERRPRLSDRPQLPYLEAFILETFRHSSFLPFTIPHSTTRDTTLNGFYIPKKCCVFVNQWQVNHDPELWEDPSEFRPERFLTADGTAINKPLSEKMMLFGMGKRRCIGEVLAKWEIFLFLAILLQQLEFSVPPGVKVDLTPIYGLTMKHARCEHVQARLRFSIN

[5] = Intrinsic clearance in human liver microsomes at 1 uM by LC-MS/MS analysis; settings: read-out: CLH
Cytochrome P450 3A4 = Cytochrome P450 3A4 (Homo sapiens, UniProt P08684); experiment: Inhibition of CYP3A4 using recombinant human CYP enzyme at a single time point by LC-MS/MS analysis
Chain of Cytochrome P450 3A4 (P08684 whole entry): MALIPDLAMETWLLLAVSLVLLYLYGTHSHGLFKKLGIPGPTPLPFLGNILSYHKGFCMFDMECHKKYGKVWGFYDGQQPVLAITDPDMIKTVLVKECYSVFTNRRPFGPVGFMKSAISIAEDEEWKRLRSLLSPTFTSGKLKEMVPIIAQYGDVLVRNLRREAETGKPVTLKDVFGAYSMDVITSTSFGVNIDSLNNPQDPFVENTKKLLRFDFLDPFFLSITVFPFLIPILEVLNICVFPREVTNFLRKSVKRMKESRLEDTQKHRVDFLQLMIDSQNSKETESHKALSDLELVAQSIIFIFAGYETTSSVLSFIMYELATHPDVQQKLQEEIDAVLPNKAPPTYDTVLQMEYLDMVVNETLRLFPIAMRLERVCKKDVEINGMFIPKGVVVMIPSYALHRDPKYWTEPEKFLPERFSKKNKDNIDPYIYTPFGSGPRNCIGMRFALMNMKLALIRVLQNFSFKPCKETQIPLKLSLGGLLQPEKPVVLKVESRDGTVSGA

half-life [1]	inhibition at 2 µM (CYP17)	inhibition at 0.5 µM (CYP19)	inhibition [2]	inhibition (CYP11B1)	IC50 [3]	IC50 [4]	IC50 (Cytochrome P450 2C9)	IC50 (Cytochrome P450 2D6)	IC50 (Cytochrome P450 2C19)	IC50 (Cytochrome P450 1A2)	microsomal CLint [5]	IC50 (Cytochrome P450 3A4)	Structure (SMILES)
9 min													O=C1CCc2cc(-c3cccnc3)cc3c2N1CC3
	< 7%	< 7%	66%	0.8%									CCC(=O)N1CCc2cc(-c3cccnc3)ccc21
			7%	6%	> 5 µM	> 5 µM							O=C(CCCl)N1CCc2cc(-c3cccnc3)ccc21
			26%	1.6%	> 5 µM								COc1ccc(C(=O)N2CCc3cc(-c4cccnc4)ccc32)cc1
			2.2%	26%	1.52 µM	> 5 µM							O=C(Cc1ccccc1)N1CCc2cc(-c3cccnc3)ccc21
15 min	< 7%	< 7%	100%	39%			> 50 µM	> 50 µM	> 50 µM	> 50 µM	91 µL/min/mg	> 50 µM	CCC(=O)N1CCc2cc(-c3cncc4ccccc34)ccc21
	< 7%	< 7%	98%	29%	3.72 µM	0.03 µM							O=C(C1CC1)N1CCc2cc(-c3cncc4ccccc34)ccc21
	< 7%	< 7%	90%	11%	6.09 µM	0.152 µM							CC(C)C(=O)N1CCc2cc(-c3cncc4ccccc34)ccc21
	< 7%	< 7%	93%	11%	6.81 µM	0.061 µM							CC(=O)N1CCc2cc(-c3cncc(F)c3)ccc21
	< 7%	< 7%	100%	48%									COc1cncc(-c2ccc3c(c2)CCN3C(C)=O)c1
17 min	< 7%	< 7%	100%	70%			> 50 µM	> 50 µM	> 50 µM	> 50 µM	81 µL/min/mg	> 50 µM	CC(=O)N1CCc2cc(-c3cnccc3C)ccc21
	< 7%	< 7%	98%	25%									CC(=O)n1ccc2cc(-c3cccnc3)ccc21

Source: ChEMBL document CHEMBL3286158, “Novel pyridyl- or isoquinolinyl-substituted indolines and indoles as potent and selective aldosterone synthase inhibitors” (J Med Chem, 2014)
